Test results: US10369089B2, “Iron oxide nanoparticles and methods of use thereof” (THE TRUSTEES OF THE UNIVERSITY OF PENNSYLVANIA, priority 2015, dated 2019)

Tests used:
[1] = Degradation of purified glucans produced by GtfB and GtfD; format: biochemical; details: 0.1 M NaOAc pH 4.5, 37° C., 30 min
Procedure: Given that free-radicals produced from H2O2 catalysis can also degrade polysaccharides in vitro (Gao et al., Nanoscale, 2014), the amount of EPS in the CAT-NP-treated biofilms was analyzed following exposure to H2O2. For assessment of EPS degradation, 100 μg of (insoluble or soluble) glucans produced by purified glucosyltransferases (GtfB or GtfD) (Koo et al., Antimicrob Agents Chemother, 2002) were mixed with each of the treatment solutions (in 0.1 M NaOAc, pH 4.5) and incubated at 37° C. for 30 min. The glucans were manufactured as follows. Each of the Gtf enzymes (10 U) were mixed with a sucrose substrate buffer (100 mM sucrose, 20 μM dextran 9,000, 50 mM KCl, 1.0 mM KPO4, 1.0 mM CaCl2 and 0.1 mM MgCl2, pH 6.5) and incubated for 4 h at 37° C. After incubation, the glucans produced were collected by centrifugation, washed and the total amounts were determined by standard phenol-sulfuric acid colorimetric assay (Koo et al., J Antimicrob Chemother, 2003; Koo et al., Antimicrob Agents Chemother, 2002). One hundred micrograms of glucan was mixed with each of the treatment solutions (total reaction volume of 300 μl in 0.1 M NaOAc, pH 4.5) and incubated at 37° C. for 30 min with rocking. After incubation, the amount of reducing sugars was determined by Somogyi-Nelson colorimetric assay.

[2] = test system: gingival and palatal tissues; set-up: species or system Sprague-Dawley rats; details: rat, in vivo
Excerpt: Each group was provided with the National Institutes of Health cariogenic diet 2000 and 5% sucrose water ad libitum. The experiment proceeded for 3 weeks. All animals were weighed weekly and their physical appearance was noted daily. All animals gained weight equally among the experimental groups and remained in good health during the experimental period. At the end of the experimental period, the animals were sacrificed and the jaws were surgically removed and dissected. All of the jaws were defleshed and the teeth were prepared for caries scoring according to Larson's modification of Keyes' system disease (see Larson, Animal models in cariology: symposium and workshop proceedings special supplement of microbiology abstracts, 1981; Bowen, Odontology, 2013; […] et al., Infect Immun, 2014; Horev, ACS Nano, 2015). Determination of the caries score of the codified jaws was performed by one calibrated examiner. Furthermore, both the gingival and palatal tissues were collected and processed for hematoxylin and eosin (HE) staining for histopathological analysis.

[3] = test system: insoluble and soluble EPS; assay: EPS degradation within biofilms; format: cell-based, Streptococcus mutans UA159; details: 30 min after H2O2 exposure; vs control
Excerpt: Biofilms were formed on saliva-coated hydroxyapatite (sHA) surfaces (tooth enamel-like material) using Streptococcus mutans, a well-established biofilm-forming, acidogenic and matrix-producing oral pathogen (FIG. 9). The hydroxyapatite discs (surface area, 2.7±0.2 cm^2) were purchased from Clarkson Chromatography and the bacteria strain, Streptococcus mutans UA159, was purchased from ATCC. The biofilm method is based on the saliva-coated hydroxyapatite (sHA) disc model (see Xiao et al., PLoS Pathog. 2012; Klein et al., J Vis Exp. 2011; Falsetta et al., Infect Immun., 2014; Koo et al., J Bacteriol, 2010; Koo et al., J Antimicrob Chemother, 2003). […] The biofilms were collected and analyzed at specific time points (19 h, 29 h and 43 h) by means of confocal fluorescence imaging, microbiological and biochemical analyses (Xiao et al., PLoS Pathog. 2012; Klein et al., J Vis Exp. 2011; Falsetta et al., Infect Immun., 2014; Koo et al., J Bacteriol, 2010; Koo et al., J Antimicrob Chemother, 2003).
To investigate whether CAT-NP-mediated H2O2 catalysis and generation of free-radicals in situ can kill embedded bacteria and degrade the EPS-matrix within biofilms, the following experiments were performed. […] Biofilms treated with CAT-NPs (0.5 mg/ml) were immediately exposed to H2O2 (0.1 to 1%, v/v) and the number of viable cells and EPS content were determined (FIG. 13A and FIG. 14). […]

dental caries = assay: Rodent model of dental caries; format: in vivo, Sprague-Dawley rats; details: rats, topical twice-daily for 3 weeks; vs. vehicle control
Procedure: In brief, animal experiments were performed on a well-established rodent model of dental caries (Bowen, Odontology, 2013; […] et al., Infect Immun, 2014; Horev, ACS Nano, 2015; Koo et al., J Dent Res, 2005). Briefly, Sprague-Dawley rats, 15 days old, were purchased with their dams from Harlan Laboratories (Madison, Wis., USA) and screened for infection with S. mutans. Any animals infected with S. mutans prior to inoculation were removed from the study. The animals were then infected orally using an actively growing (mid-logarithmic) culture of S. mutans UA159 and their infection was checked via oral swabbing. Infected animals were randomly placed into four treatment groups (12 animals/group) and their teeth were treated topically using a custom-made applicator twice daily. The treatment groups included: […] Agents were applied topically (orally-delivered; 100 μL per rat) twice-daily for 3 weeks, with brief exposures (30 s) to simulate clinical use. Each group was provided with the National Institutes of Health cariogenic diet 2000 and 5% sucrose water ad libitum. The experiment proceeded for 3 weeks. All animals were weighed weekly and their physical appearance was noted daily. All animals gained weight equally among the experimental groups and remained in good health during the experimental period. […]

S. mutans biofilms = assay: Biofilm disruption after twice daily topical treatment (confocal microscopy); format: cell-based, Streptococcus mutans UA159; details: CAT-NP 0.5 mg/ml, H2O2 1%, in vitro
Excerpt: To determine the retention and the spatial distribution of CAT-NPs within an intact biofilm 3D architecture, multiphoton confocal microscopy and computational analysis were used (Xiao et al., PLoS Pathog. 2012; Klein et al., J Vis Exp, 2011; Koo et al., J Bacteriol, 2010). The exopolysaccharides (EPS) (in red) were labeled using […] Alexa Fluor 647-labeled dextran conjugate (10 kDa; 647/668 nm; Molecular Probes Inc., Invitrogen Corp., Carlsbad, Calif., USA) and the bacterial cells (in green) were stained with 2.5 μM SYTO 9 (485/498 nm; Molecular Probes Inc.). The CAT-NPs (in white) were detected via their inherent non-linear optical property using multiphoton confocal microscopy (Xiao et al., PLoS Pathog, 2012; Klein et al., J Vis Exp, 2011; Liao et al., Adv Funct Mater, 2013; Koo et al., J Bacteriol, 2010; Liao et al., Adv Funct Mater, 2013). Imaging was performed using a Leica SP5 multiphoton confocal microscope with a 20× LPlan N (1.05 numerical aperture) water immersion objective lens. […] The confocal images were analyzed using software for simultaneous visualization and quantification of EPS, bacterial cells and CAT-NPs within the intact biofilms. […] COMSTAT and ImageJ were used for quantitative analysis as previously described (Xiao et al., PLoS Pathog. 2012; Klein et al., J Vis Exp. 2011; Koo et al., J Bacteriol, 2010). […]

Row | Compound | degradation of glucans from GtfB and GtfD (glucose released) [1] | cytotoxic effects in gingival and palatal tissues (histopathology) [2] | amounts of insoluble and soluble EPS within biofilms [3] | initiation and severity of carious lesions (caries scoring) (dental caries) | biofilm disruption (accumulation of bacterial cells and EPS-matrix) (S. mutans biofilms)
1 | OO [H2O2, hydrogen peroxide] | failed to cleave either glucan | no cytotoxic effects | inability to reduce EPS within biofilms | without significant effect | limited anti-biofilm effects
2 | iron oxide nanoparticles [IO-NPs] | – | no cytotoxic effects | – | – | –
